Results taken from patent US12152051B2, “Cyclic dinucleotide analogue, pharmaceutical composition thereof, and application” (SHANGHAI DE NOVO PHARMATECH CO., LTD., priority 2018, dated 2024).
pEC50: −log10 of the molar value.

Columns and labels:
[1] = system: THP-1 dual cells; assay: Type 1 IFN activation assay (THP-1 dual cells, QUANTI-Luc); assay type: cell-based; conditions: PMA-treated THP-1 dual cells, compound in digitonin PB buffer 30 min, then 24 h, expression level of IFN
Description: Plated THP-1 dual cells (Invivogen) as 100000 cells/well in a 96 well-plate, and then phorbol 12-myristate 13-acetate (PMA) was added and the final concentration of PMA was 30 ng/mL. After 24 h incubation, cells were washed with fresh medium for twice, and 3-folds dilution compounds were added to appropriate wells. The compounds were diluted by PB buffer (50 mM HEPES, 100 mM KCl, 3 mM MgCl2, 0.1 mM DTT, 85 mM sucrose, 1 mM ATP, 0.1 mM GTP, 0.2% o bovine serum albumin and 5 μg/ml digitonin) and the top dose was 10 μM, minimum dose was 0.0015 μM. The cells were incubated for 30 min, and then washed with fresh medium for twice again. Add fresh medium, and the cells were incubated for additional 24 h. After incubation, 10 ul supermant and 50 μL QUANTI-Luc (Invivogen) was add to a 96 well-plate, fluorescence was read with TECAN. The express level of IFN was proportional to the fluorescence intensity. Drew the curve with Graphpad Prism and analyse EC50 of the compounds.

[2] = molecular target: STING (Homo sapiens, UniProt Q86WV6); assay: STING IFNβ secretion assay (THP-1 cells, AlphaLISA IFN-β kit); assay type: cell-based; conditions: 5 h incubation, secretion of IFN-β
Sequence of STING (Q86WV6 whole entry): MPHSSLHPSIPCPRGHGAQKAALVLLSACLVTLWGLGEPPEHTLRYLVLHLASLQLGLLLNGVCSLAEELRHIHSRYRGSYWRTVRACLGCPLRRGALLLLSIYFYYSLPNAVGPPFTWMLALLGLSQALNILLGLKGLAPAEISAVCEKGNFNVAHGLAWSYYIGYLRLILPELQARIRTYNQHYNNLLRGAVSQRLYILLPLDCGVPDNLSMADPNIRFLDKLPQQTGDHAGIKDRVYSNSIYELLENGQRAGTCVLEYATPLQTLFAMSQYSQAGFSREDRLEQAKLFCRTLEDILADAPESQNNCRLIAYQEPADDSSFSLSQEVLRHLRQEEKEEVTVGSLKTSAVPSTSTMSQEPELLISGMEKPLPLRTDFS
Description: Plated 40 uL THP-1 cells (ATCC) as 16000 cells/well in a 96 well-plate (Corning, 3596). 3-folds dilution compounds were added to appropriate wells. The compounds were diluted with buffer (RPMI1640+2 mM L-glutamine+1× non-essential amino acids+1 mM sodium pyruvate+0.5% Fetal bovine serum), and the top dose of the compound was 100 μM, minimum dose was 1.23 μM. After 5 h incubation, […] supernant was added to 384-well plate (Greiner, Cat: 784075) and the secretion of IFN-β was detected with AllphaLISA IFN-β kit(PerkinElmer, Cat:AL577C). 1× buffer was prepared to dilute the receptor and donor, and then 4 μL 20 μg/mL Anti-pIFNβ AlphaLISA receptor was added to every well. After 30 mins incubation at room temperature, 4 μL 2 nM biotinylated Anti-pIFNβ antibody was added to a 384 well-plate, incubated overnight at 4° C. 10 μL 40 µg/mL Streptavidin (SA) donor which was diluted with 1×buffer was added, and then incubated at room temperature for 30 min. Fluorescence was read with TECAN. The expressed level of IFN-β was proportional to the fluorescence intensity. Drew the curve with Graphpad Prism and analysed EC50 of the compounds.

| Structure (SMILES) | pEC50 [1] | pEC50 [2] | pEC50 ([1]; Homo sapiens, THP1-Dual) |
| --- | --- | --- | --- |
| Nc1nc2c(ncn2[C@@H]2O[C@@H]3COP(=O)(S)O[C@H]4[C@@H](O)[C@H](n5ccc6nccn6c5=O)O[C@@H]4COP(=O)(S)O[C@@H]2[C@@H]3O)c(=O)[nH]1 (some centres unmarked) [Compound 13-p1] | 3.73 |  |  |
| Nc1nc2c(ncn2[C@@H]2O[C@@H]3COP(=O)(S)O[C@H]4[C@@H](O)[C@H](n5cnc6ncccc6c5=O)O[C@@H]4COP(=O)(S)O[C@@H]2[C@@H]3O)c(=O)[nH]1 (some centres unmarked) [Compound 11-p1] | 4.22 |  |  |
| Nc1ncnc2c1ncn2C1OC2COP(=O)(S)OC3C(O)C(COP(=O)(S)OC2C1F)OC3n1c(=O)sc2c(N)ncnc21 (centres unmarked) [Compound 4-p3] | 6.38 | 4.03 |  |
| CO[C@H]1[C@H]2OP(=O)(S)OC[C@H]3O[C@@H](n4cnc5c(N)ncnc54)[C@H](F)[C@@H]3OP(=O)(S)OC[C@H]1O[C@H]2n1c(=O)sc2c(N)ncnc21 (some centres unmarked) [Compound 6-p1] | 5.64 |  |  |
| Nc1ncnc2c1ncn2[C@@H]1O[C@@H]2COP(=O)(S)O[C@@H]3[C@H](O)[C@@H](COP(=O)(S)O[C@H]2[C@H]1O)O[C@H]3n1c(=O)[nH]c2c(N)ncnc21 (some centres unmarked) [Compound 1-p1] | < 5.00 |  |  |
| Nc1ncnc2c1ncn2[C@@H]1O[C@@H]2COP(=O)(S)O[C@@H]3[C@H](O)[C@@H](COP(=O)(S)O[C@H]2[C@H]1O)O[C@H]3n1c(=O)sc2c(N)ncnc21 (some centres unmarked) [Compound 2-p1] | 4.34 |  |  |
| Nc1nc2c(ncn2[C@@H]2O[C@@H]3COP(=O)(S)O[C@H]4[C@@H](O)[C@H](n5cnc6ccccc6c5=O)O[C@@H]4COP(=O)(S)O[C@@H]2[C@@H]3O)c(=O)[nH]1 (some centres unmarked) [Compound 10-p1] | 4.15 |  |  |
| Nc1ncnc2c1ncn2C1OC2COP(=O)(S)OC3C(O)C(COP(=O)(S)OC2C1F)OC3n1c(=O)sc2c(N)ncnc21 (centres unmarked) [Compound 4-p2] |  | 4.44 | 6.20 |
| Nc1ncnc2c1ncn2[C@@H]1O[C@@H]2COP(=O)(S)O[C@@H]3C(O)[C@@H](COP(O)(=S)O[C@H]2[C@H]1O)O[C@H]3n1cnc2c(N)ncnc21 (some centres unmarked) [Ref. 1, MLRR-CDA, reference compound] | 5.53 |  |  |
